Publication PMC9146377, “Design and Synthesis of Novel Bis-Imidazolyl Phenyl Butadiyne Derivatives as HCV NS5A Inhibitors” (Pharmaceuticals, 2022)
Like-named read-outs stand apart in the source and are kept apart here.

Key:
[1] = Cytotoxicity assay (intracellular ATP levels) in Huh5-2 replicon cells; assay type: cell-based; settings: human, Huh5-2 cells, read-out: HCV Replicon 1b CC50
Experimental: (§1) All synthesized compounds were tested against HCV genotype 1b Con-1 subgenomic replicon in the Huh-5-2 stable cell line. Specifically, their activity against viral replication was estimated by measuring firefly luciferase, which is co-expressed by the bicistronic replicon, and their half-maximal effective concentrations (EC50) were determined. In parallel, the half-maximal cytotoxic concentrations (CC50) of the compounds were estimated, and their selective indexes (SI50: CC50/ EC50) were calculated. All novel synthesized compounds were active against HCV 1b with EC50 < 1 µM except for compound 4b (Table 3).
Intracellular ATP levels were measured to determine the cytotoxicity of the compounds in the treated cells. In 96-well plates, 10^4 cells per well were seeded, incubated with serial dilutions of the compounds or DMSO as a control for 72 h at 37 °C (5% CO2) and lysed for ATP measurement. ATP levels were measured using the ViaLight HS BioAssay kit (Lonza, Basel, Switzerland) in a GloMax 20/20 single-tube luminometer (Promega) for 1 s, according to the manufacturer’s protocol. Values were normalized to total protein amounts and used to determine the compound concentration causing 50% cell death (CC50). Nonlinear regression analysis was performed using Prism 5.0 software (GraphPad Software Inc., San Diego, CA, USA).

[2] = test system: (+) strand HCV RNA, Con1 (GT 1b) subgenomic replicon; test: RT-qPCR quantification of HCV RNA in Huh5-2 replicon cells; assay type: cell-based, Hepatitis C virus; settings: normalized to YWHAZ
Experimental: The potency of compound 10a measured by the luciferase assay in HCV GT 1b was confirmed at the level of viral RNA and NS5A protein expression. Huh5-2 replicon cells were treated with 10a in serial dilutions, or its solvent DMSO (control), and viral RNA was quantified by reverse transcription-quantitative polymerase chain reaction (RT-qPCR). NS5A protein levels were evaluated by indirect immunofluorescence combined with confocal microscopy analysis. […] Nuclei were stained with propidium iodide (PI) as a cell viability control.
Extraction of total RNA from Huh5-2 cells was performed using TRIzol reagent (Ambion, Austin, TX, USA), according to the manufacturer’s instructions. Replicon RNA was quantified with reverse transcription (RT) and quantitative real-time polymerase chain reaction (qPCR). RT was performed using a Con1 IRES-specific primer (IRES-R: 5′-[…]-3′) and Moloney Murine Leukemia Virus (MMLV) reverse transcriptase (Promega). […]
Figure 6 Inhibition of HCV RNA and protein expression levels exerted by compound 10a in HCV Con1 (GT 1b) subgenomic replicon cell line. […] Values are expressed as a percentage of those obtained from cells treated with the solvent (control). […]

[3] = test system: HCV genotype 1b Con-1 subgenomic replicon; test: Anti-HCV luciferase assay, genotype 1b (Con1) subgenomic replicon in Huh5-2 cells; assay type: cell-based, Hepatitis C virus; settings: mean of three experiments
Experimental: as §1
Huh5-2 [65] and Huh7-JFH1 [66] stable cell lines harbor the subgenomic HCV reporter replicon I389luc-ubi-neo/NS3-3′/Con1/5.1 (genotype 1b; strain Con1) and I389luc-ubi-neo/NS3-3′_dg_JFH1 (genotype 2a, JFH1 strain), respectively (kindly provided by R. Bartenschlager, Heidelberg University, Heidelberg, Germany). Huh7.5-3a and Huh7.5-4a stable cell lines harbor the subgenomic HCV reporter replicon S52-SG (Feo) (AII) (genotype 3a; S52 strain) and ED43-SG (Feo) (VYG) (genotype 4a; ED43 strain), respectively (viral constructs kindly provided by C.M. Rice, Rockefeller University, New York, NY, USA). These replicons carry as a first cistron firefly luciferase (F-Luc) and neomycin phosphotransferase genes under the translational control of the HCV internal ribosome entry site (IRES), followed by HCV NS3 to NS5B proteins under the control of the EMCV IRES.
The anti-HCV assay in replicon cells was performed by seeding 1 × 10^4 cells per well in a 96-well plate. After 24 h of incubation at 37 °C (5% CO2) and medium removal, serial dilutions of the test compounds in complete DMEM were added. Cells were lysed after 72 h, and F-Luc activity was measured. The anti-HCV assay for the full-length viral construct H77S.3/GLuc2A was performed after electroporation of Huh7-Lunet cells with viral RNA. Cells were seeded in 96-well plates, the medium was removed 24 h after electroporation, and serial dilutions of the compounds in complete DMEM were added. At 72 h post-treatment, cell supernatants were collected, and G-Luc activity was measured. In addition, the cells were lysed for total protein quantification.
Relative luminescence units (RLU) were expressed as a percentage of the respective units derived from DMSO-treated cells (control). The half-maximal effective concentration (EC50), defined as the concentration of compound that reduces luciferase signal by 50%, was calculated by dose-response curve analysis using Prism 5.0 software (GraphPad Software Inc., San Diego, CA, USA).
The F-Luc activity was measured using the Luciferase Assay System (Promega, Madison, WI, USA), as recommended by the manufacturer. The G-Luc activity was measured using 12 μM coelenterazine (Promega) in assay buffer (50 mM potassium phosphate, pH 7.4, 500 mM NaCl, 1 mM EDTA). Measurements were carried out using a GloMax 20/20 single tube luminometer (Promega) for 10 s. The F-Luc activity was normalized to the total protein amount determined using the Bradford assay reagent (Pierce, Waltham, MA, USA).

For `COC(=O)N[C@@H](C(=O)N1CCC[C@H]1c1ncc(-c2cccc(C#CC#Cc3cccc(-c4cnc([C@@H]5CCCN5C(=O)[C@H](NC(=O)OC)c5ccccc5)[nH]4)c3)c2)[nH]1)c1ccccc1` [Compound 10a, Dimethyl ((1R,1′R)-((2S,2′S)-((buta-1,3-diyne-1,4-diylbis(3,1-phenylene))bis(1H-imidazole-5,2-diyl))bis(pyrrolidine-2,1-diyl))bis(2-oxo-1-phenylethane-2,1-diyl))dicarbamate], the CC50 at 72 h [1] was greater than 100000 nM, the EC50 ([2]; Hepatitis C virus, GT1B, Huh-5-2, RT-qPCR) was 0.255 nM and the EC50 ([2]; RT-qPCR) was 0.25 nM. For the same compound, the EC50 ([3]; Hepatitis C virus, Huh-5-2, 72 h, read-out: HCV Replicon 1b EC50, Huh5-2 cells, Con1 strain, F-Luc, 72 h) was 0.1 nM and the EC50 ([3]; Huh5-2 cells, Con1 strain, F-Luc, 72 h, read-out: HCV Replicon 1b EC50) was 0.1 nM.
